Reference: ChEMBL document CHEMBL1201862, “PubChem BioAssay data set” (2004)
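Tested at 5 concentrations; 48 h exposure; 96-well plates; endpoints linearly interpolated, else capped at highest concentration. At the GI50, growth is halved.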 Calls of active or inactive are those of the source. No stated cut-off is given here; in the data, active = GI50 up to about 1.1 µM and inactive = higher.

Assays:
Test in all cases: NCI tumour cell line growth inhibition, 48 h
HCT-116 = system: HCT-116
SK-MEL-5 = system: SK-MEL-5
SW-620 = system: SW-620
HT-29 = system: HT-29
UACC-62 = system: UACC-62
HL-60 = system: HL-60
OVCAR-4 = system: OVCAR-4
NCI-H23 = system: NCI-H23
COLO 205 = system: COLO 205
ACHN = system: ACHN
A549 = system: A549
M14 = system: M14
SF-539 = system: SF-539
SK-MEL-2 = system: SK-MEL-2
Hs-578T = system: Hs-578T
SF-268 = system: SF-268
HCT-15 = system: HCT-15
MCF7 = system: MCF7
UO-31 = system: UO-31
MDA-MB-435 = system: MDA-MB-435

Structure (SMILES)	GI50 (HCT-116)	GI50 (SK-MEL-5)	GI50 (SW-620)	GI50 (HT-29)	GI50 (UACC-62)	GI50 (HL-60)	GI50 (OVCAR-4)	GI50 (NCI-H23)	GI50 (COLO 205)	GI50 (ACHN)	GI50 (A549)	GI50 (M14)	GI50 (SF-539)	GI50 (SK-MEL-2)	GI50 (Hs-578T)	GI50 (SF-268)	GI50 (HCT-15)	GI50 (MCF7)	GI50 (UO-31)	GI50 (MDA-MB-435)
CC(=O)OC1CC(n2cc(F)c(=O)[nH]c2=O)OC1CO (stereo not given)	2.51 µM (inactive)	1.49 µM (inactive)	10.8 µM (inactive)	19.9 µM (inactive)	0.42 µM (active)	4.31 µM (inactive)	59.8 µM (inactive)	2 µM (inactive)	8.75 µM (inactive)	0.0585 µM (active)	0.143 µM (active)	2.16 µM (inactive)	0.0418 µM (active)	> 28.8 µM (inactive)	7.4 µM (inactive)	0.0807 µM (active)	16.1 µM	0.22 µM (active)	0.635 µM (active)	15.7 µM (inactive)
CCCCCC/C=C\CCCCCCCCCC1=CC(=O)C=C(OC)C1=O [IRISQUINONE A]	3.43 µM (inactive)	2.54 µM (inactive)	4.6 µM (inactive)	3.19 µM (inactive)	4.05 µM (inactive)	1.88 µM (inactive)	2.05 µM (inactive)	3.37 µM (inactive)	1.63 µM (inactive)	3.18 µM (inactive)	4.06 µM (inactive)	4.19 µM (inactive)	2.05 µM (inactive)	4.34 µM (inactive)	7.36 µM (inactive)	5.93 µM (inactive)	2.1 µM	4.46 µM (inactive)	4.57 µM (inactive)	3.81 µM (inactive)
OC1C2[C@@H](O)CCCN2C[C@@H](O)[C@H]1O (stereo not given in full)	> 100 µM (inactive)	> 100 µM (inactive)	> 100 µM (inactive)	> 100 µM (inactive)	> 100 µM (inactive)	> 100 µM (inactive)	> 100 µM (inactive)	> 100 µM (inactive)	> 100 µM (inactive)	> 100 µM (inactive)	> 100 µM (inactive)	> 100 µM (inactive)	> 100 µM (inactive)	> 100 µM (inactive)	> 100 µM (inactive)	> 100 µM (inactive)	> 100 µM	> 100 µM (inactive)	> 100 µM (inactive)	> 100 µM (inactive)
Cc1ccc(C2(c3ccc(F)cc3)OC(=O)c3ccccc32)c(O)c1 (stereo not given)	12.9 µM (inactive)	16.3 µM (inactive)	13.6 µM (inactive)	17.7 µM (inactive)	10.5 µM (inactive)	14 µM (inactive)	17 µM (inactive)	19.9 µM (inactive)	21.1 µM (inactive)	14.8 µM (inactive)	15.8 µM (inactive)	15 µM (inactive)	18.9 µM (inactive)	14.7 µM (inactive)	20.1 µM (inactive)	19.5 µM (inactive)	15.2 µM	17 µM (inactive)	5.5 µM (inactive)	12.4 µM (inactive)
CNC(=S)NN=C1NCCCCN1	> 100 µM (inactive)	> 100 µM (inactive)	> 100 µM (inactive)	> 100 µM (inactive)	> 100 µM (inactive)	> 100 µM (inactive)	> 100 µM (inactive)	> 100 µM (inactive)	> 100 µM (inactive)	> 100 µM (inactive)	> 100 µM (inactive)	> 100 µM (inactive)	> 100 µM (inactive)	> 100 µM (inactive)	83.9 µM (inactive)	> 100 µM (inactive)	> 100 µM	> 100 µM (inactive)	> 100 µM (inactive)	> 100 µM (inactive)
O=C(Nc1sccc1S(=O)(=O)c1ccc(Cl)cc1)c1ccc(Cl)cc1	> 100 µM (inactive)	74.3 µM (inactive)	> 100 µM (inactive)	> 100 µM (inactive)	> 100 µM (inactive)	> 100 µM (inactive)	25.6 µM (inactive)	68.5 µM (inactive)	> 100 µM (inactive)	99.1 µM (inactive)	94.8 µM (inactive)	> 100 µM (inactive)	39.9 µM (inactive)	59.8 µM (inactive)	51.3 µM (inactive)	65.9 µM (inactive)	> 100 µM	99.8 µM (inactive)	86.3 µM (inactive)	> 100 µM (inactive)
COc1cc2c3c(cc(Cl)nc3c1OC)C(O)(CC(C)=O)C(=O)N2 (stereo not given)	17.3 µM (inactive)	> 41 µM (inactive)	27.4 µM (inactive)	> 45.7 µM (inactive)	16.6 µM (inactive)	6.79 µM (inactive)	17.8 µM (inactive)	30.7 µM (inactive)	38.1 µM (inactive)	24.9 µM (inactive)	> 42.9 µM (inactive)	18.9 µM (inactive)	> 100 µM (inactive)	20.3 µM (inactive)	40.3 µM (inactive)	6.07 µM (inactive)	> 43.4 µM	16 µM (inactive)	23.2 µM (inactive)	16.4 µM (inactive)
NC1=CN(CCCO)C2=N/C(=C\c3ccco3)C(=O)N12	> 100 µM (inactive)	> 100 µM (inactive)	> 100 µM (inactive)	> 100 µM (inactive)	> 100 µM (inactive)	> 100 µM (inactive)	> 100 µM (inactive)	> 100 µM (inactive)	> 100 µM (inactive)	> 100 µM (inactive)	> 100 µM (inactive)	> 100 µM (inactive)	> 100 µM (inactive)	> 100 µM (inactive)	> 100 µM (inactive)	> 100 µM (inactive)	> 100 µM	> 100 µM (inactive)	94 µM (inactive)	> 100 µM (inactive)
CC(=O)c1c(O)c(C)c(O)c(Cc2c(O)c3c(c(C(=O)/C=C/c4ccccc4)c2O)OC(C)(C)C=C3)c1O [ROTTLERIN]	1.82 µM (inactive)	1.87 µM (inactive)	3.19 µM (inactive)	3.24 µM (inactive)	2.95 µM (inactive)	2.64 µM (inactive)	2.79 µM (inactive)	2.37 µM (inactive)	1.68 µM (inactive)	3.51 µM (inactive)	0.986 µM (active)	3.23 µM (inactive)	2.99 µM (inactive)	1.34 µM (inactive)	3.65 µM (inactive)	3.61 µM (inactive)	2.52 µM	3.13 µM (inactive)	2.26 µM (inactive)	2.74 µM (inactive)
Cc1nc2c(o1)C(=O)c1ccccc1/C2=N/c1ccc(N2CCOCC2)cc1	3.35 µM (inactive)	1.79 µM (inactive)	3.89 µM (inactive)	24.8 µM (inactive)	2.03 µM (inactive)	1.83 µM (inactive)	2.99 µM (inactive)	2.39 µM (inactive)	23.7 µM (inactive)	3.61 µM (inactive)	6.19 µM (inactive)	1.8 µM (inactive)	2.49 µM (inactive)	2.75 µM (inactive)	3.22 µM (inactive)	4.48 µM (inactive)	3.66 µM	2.77 µM (inactive)	3.43 µM (inactive)	1.94 µM (inactive)
C=C1C(=O)O[C@@H]2C[C@@H]3[C@]4(CC[C@]5(C)[C@@H]([C@H](C)CC/C=C(\C)C=O)CC[C@@]35C)C[C@]4(CCC(=O)OC)[C@H]12	0.771 µM (active)	0.83 µM (active)	1.72 µM (inactive)	4.39 µM (inactive)	1.56 µM (inactive)	0.367 µM (active)	1.7 µM (inactive)	1.84 µM (inactive)	2.39 µM (inactive)	2.06 µM (inactive)	6.64 µM (inactive)	1.36 µM (inactive)	2 µM (inactive)	1.77 µM (inactive)	3.01 µM (inactive)	1.72 µM (inactive)	1.78 µM	1.46 µM (inactive)	2 µM (inactive)	1.51 µM (inactive)
COc1cc(/C=N/c2nc3cc4sc(/N=C/c5cc(OC)c(OC)c(OC)c5)nc4cc3s2)cc(OC)c1OC	39.4 µM (inactive)	37.1 µM (inactive)	33.1 µM (inactive)	52.7 µM (inactive)	67.1 µM (inactive)	57.1 µM (inactive)	> 100 µM (inactive)	56.1 µM (inactive)	28.4 µM (inactive)	> 100 µM (inactive)	40.5 µM (inactive)	66.8 µM (inactive)	17.9 µM (inactive)	72.4 µM (inactive)	> 100 µM (inactive)	89.1 µM (inactive)	55.2 µM	53.8 µM (inactive)	62.8 µM (inactive)	39.1 µM (inactive)
COc1ccc(C2=C3SC=c4ccccc4=C3ON=C2c2ccccc2)cc1	57.4 µM (inactive)	> 100 µM (inactive)	> 100 µM (inactive)	> 100 µM (inactive)	> 100 µM (inactive)	> 100 µM (inactive)	> 100 µM (inactive)	> 100 µM (inactive)	> 100 µM (inactive)	> 100 µM (inactive)	> 100 µM (inactive)	> 100 µM (inactive)	> 100 µM (inactive)	> 100 µM (inactive)	> 100 µM (inactive)	> 100 µM (inactive)	> 100 µM	> 100 µM (inactive)	> 100 µM (inactive)	> 100 µM (inactive)
COc1ccc(C(C)c2cc3c(cc2OC)OCO3)cc1 (stereo not given)	0.111 µM (active)	0.0659 µM (active)	0.0828 µM (active)	0.0798 µM (active)	0.2 µM (active)	0.0802 µM (active)	49.4 µM (inactive)	0.169 µM (active)	0.135 µM (active)	3.01 µM (inactive)	0.218 µM (active)	0.0738 µM (active)	0.1 µM (active)	0.0767 µM (active)	0.0207 µM (active)	0.614 µM (active)	0.0723 µM	0.0461 µM (active)	0.272 µM (active)	0.0175 µM (active)
